Source: EP4813980A1, “EP300/CBP REGULATOR, AND PREPARATION METHOD THEREFOR AND USE THEREOF” (Miracure Biotechnology Limited, priority 2023, dated 2025)

How the values were obtained:
vCap cells = assay: Cell growth inhibition, CellTiter-Glo, 72 h; format: cell-based; conditions: Homo sapiens, 72 h culture, mean of N=2
Description: (§1) 22RV1, vCap, MM1S and OPM-2 cells were cultured in RPMI-1640 medium (10% fetal bovine serum and 100 units of penicillin/streptomycin dual-antibody per mL were added to RPMI-1640) in a cell incubator at 37°C with 5% CO2, respectively. Cells in logarithmic growth phase were seeded into 96-well cell culture plates at 5×10^3 cells/100 µL/well and cultured overnight. Active compounds dissolved in DMSO at different concentrations were added with a final concentration of 0.5% DMSO. 1% Tween 20 was used as positive control and 0.5% DMSO was used as negative control. After 72 h of culture, an equal volume of CellTiter-Glo was added to each well, mixed by shaking for 2 min, and left standing at room temperature for 10 min. […] signal values were read with a microplate reader. Data were analyzed and graphs were generated using Prism 7.0. The values shown are mean ± SEM (N=2). […] The formula for inhibition rate is as follows: % Inhibition = (Icompound−IZPE)/(IHPE−IZPE) × 100 [formula]
(§2) The X-axis is compound concentration (nM), and the Y-axis is % Inhibition.

22RV1 cells = assay: Cell growth inhibition, CellTiter-Glo, 72 h; format: cell-based; conditions: 72 h culture, mean of N=2
Description: as §1, §2

| Compound | IC50 (vCap cells) [nM] | IC50 (22RV1 cells; Homo sapiens) [nM] | IC50 (22RV1 cells) [nM] |
| --- | --- | --- | --- |
| CNC(=O)N1CCc2cc(C3CCN(CCN4CCC(CCc5cccc6c5C(=O)N(C5CCC(=O)NC5=O)C6=O)CC4)CC3)cc(N3CCCc4cc(-c5cnn(C)c5)c(C(F)F)cc43)c2C1 (stereo not shown) [Compound 2014, 8-(7-(difluoromethyl)-6-(1-methylpyrazol-4-yl)-3,4-dihydro-2H-quinolin-1-yl)-6-[1-[2-[4-[2-[2-(2,6-dioxo-3-piperidinyl)-1,3-dioxoisoindolin-4-yl]ethyl]-1-piperidinyl]ethyl]-4-piperidinyl]-N-methyl-3,4-dihydro-1H-isoquinoline-2-carboxamide] | 11 |  |  |
| CC(=O)N1Cc2cc(C3CCN(Cc4ccc(CCOc5cccc6c5CN(C5CCC(=O)NC5=O)C6=O)cc4)CC3)cc(N3CCCc4cc(-c5cnn(C)c5)c(C(F)F)cc43)c2C1 (stereo not shown) [Compound 2003] | 0.19 | 0.69 |  |
| CC(=O)n1cc2cc(C3CCN(C(=O)CCCCCCOc4ccc5c(c4)n(C)c(=O)n5C4CCC(=O)NC4=O)CC3)cc(N3CCCc4cc(-c5cnn(C)c5)c(C(F)F)cc43)c2c1 (stereo not shown) [Compound 2029, 3-(5-((7-(4-(2-acetyl-7-(7-(difluoromethyl)-6-(1-methyl-1H-pyrazol-4-yl)-3,4-dihydroquinolin-1(2H)-yl)isoindol-5-yl)piperidin-1-yl)-7-oxoheptyl)oxy)-3-methyl-2-oxo-2,3-dihydro-1H-benzo[d]imidazol-1-yl)piperidine-2,6-dione] | 0.03 | 0.04 |  |
| CC(=O)N1Cc2cc(C3CCN(C(=O)CCCCCCCCNc4ccc5c(c4)n(C)c(=O)n5C4CCC(=O)NC4=O)CC3)cc(N3CCCc4cc(-c5cnn(C)c5)c(C(F)F)cc43)c2C1 (stereo not shown) [Compound 2009] | 0.01 | 0.04 |  |
| CNC(=O)N1CCc2cc(C3CCN(Cc4ccc(COc5cccc6c5CN(C5CCC(=O)NC5=O)C6=O)cc4)CC3)cc(N3CCCc4cc(-c5cnn(C)c5)c(C(F)F)cc43)c2C1 (stereo not shown) [Compound 2015, 8-(7-(difluoromethyl)-6-(1-methyl-1H-pyrazol-4-yl)-3,4-dihydroquinolin-1(2H)-yl)-6-(1-(4-(((2-(2,6-dioxopiperidin-3-yl)-1-oxoisoindolin-4-yl)oxy)methyl)benzyl)piperidin-4-yl)-N-methyl-3,4-dihydroisoquinoline-2(1H)-carboxamide] | 0.01 | 0.05 |  |
| CC(=O)N1CCc2cc(C3CCN(C(=O)CCCCCCCNc4ccc5c(c4)C(=O)N(C4CCC(=O)NC4=O)C5=O)CC3)cc(N3CCCc4cc(-c5cnn(C)c5)c(C(F)F)cc43)c2C1 (stereo not shown) [Compound 2025, 5-[[8-[4-[2-acetyl-8-[7-(difluoromethyl)-6-(1-methylpyrazol-4-yl)-3,4-dihydro-2H-quinolin-1-yl]-3,4-dihydro-1H-isoquinolin-6-yl]-1-piperidinyl]-8-oxooctyl]amino]-2-(2,6-dioxo-3-piperidinyl)isoindoline-1,3-dione] | 7530 | 3890 |  |
| CC(=O)N1Cc2cc(C3CCN(CCN4CCOC(CNc5cccc6c5C(=O)N(C5CCC(=O)NC5=O)C6=O)C4)CC3)cc(N3CCCc4cc(-c5cnn(C)c5)c(C(F)F)cc43)c2C1 (stereo not shown) [Compound 2001] | 0.154 | 0.06 |  |
| CC#CC(=O)N1CCC(n2nc(N3CCCc4cc(-c5cnn(C)c5)c(C(F)F)cc43)c3c2CCN(C(=O)NC)C3)CC1 [Compound 1376] |  | 2650 |  |
| CNC(=O)N1CCc2cc(C3CCN(C(=O)CCCCCCNc4ccc5c(c4)n(C)c(=O)n5C4CCC(=O)NC4=O)CC3)cc(N3CCCc4cc(-c5cnn(C)c5)c(C(F)F)cc43)c2C1 (stereo not shown) [Compound 2028, 8-[7-(difluoromethyl)-6-(1-methylpyrazol-4-yl)-3,4-dihydro-2H-quinolin-1-yl]-6-[1-[7-[[1-(2,6-dioxo-3-piperidinyl)-3-methyl-2-oxo-benzimidazol-5-yl]amino]heptanoyl]-4-piperidinyl]-N-methyl-3,4-dihydro-1H-isoquinoline-2-carboxamide] | 0.26 | 0.1 |  |
| C=CC(=O)NC1CCC(n2c([C@@H]3CCCC(=O)N3c3ccc(F)c(F)c3)nc3cc(-c4c(C)noc4C)ccc32)CC1 (stereo partly shown) [Compound 1371] |  |  | 2090 |
| COC(=O)N1Cc2cc(C3CCN(C(=O)CCOCCOCCOCCOCCNc4ccc5c(c4)C(=O)N(C4CCC(=O)NC4=O)C5=O)CC3)cc(N3CCCc4cc(-c5cnn(C)c5)c(C(F)F)cc43)c2C1 (stereo not shown) [Compound 2024] | 4610 | 3850 |  |
| CNC(=O)N1CCc2cc(C3CCN(CCN4CCC(CNc5cccc6c5C(=O)N(C5CCC(=O)NC5=O)C6=O)CC4)CC3)cc(N3CCCc4cc(-c5cnn(C)c5)c(C(F)F)cc43)c2C1 (stereo not shown) [Compound 2021] | 0.545 | 0.5 |  |
| C=CC(=O)N1CCC(c2cc3c(c(N4CCCc5cc(-c6cnn(C)c6)c(C(F)F)cc54)c2)CN(C(=O)NC)CC3)CC1 [Compound 1346, 6-(1-acryloylpiperidin-4-yl)-8-(7-(difluoromethyl)-6-(1-methyl-1H-pyrazol-4-yl)-3,4-dihydroquinolin-1(2H)-yl)-N-methyl-3,4-dihydroisoquinoline-2(1H)-carboxamide] |  | 81800 |  |
| CC(=O)N1Cc2cc(C3CCN(Cc4ccc(COc5cccc6c5CN(C5CCC(=O)N(CO)C5=O)C6=O)cc4)CC3)cc(N3CCCc4cc(-c5cnn(C)c5)c(C(F)F)cc43)c2C1 (stereo not shown) [Compound 2053] | 0.36 | 1.02 |  |
| CC(=O)N1Cc2cc(C3CCC(N(C)C4CCN(c5ccc6c(c5)CN(C5CCC(=O)NC5=O)C6=O)CC4)CC3)cc(N3CCCc4cc(-c5cnn(C)c5)c(C(F)F)cc43)c2C1 (stereo not shown) [Compound 2079, 3-(5-((4-((2-acetyl-7-(7-(difluoromethyl)-6-(1-methyl-1H-pyrazol-4-yl)-3,4-dihydroquinolin-1(2H)-yl)isoindolin-5-yl)cyclohexyl)(methyl)amino)piperidin-1-yl)-1-oxoisoindolin-2-yl)piperidine-2,6-dione] |  | 3.76 |  |
| C=CS(=O)(=O)N[C@H]1CC[C@H](n2c([C@@H]3CCCC(=O)N3c3ccc(F)c(F)c3)nc3cc(-c4c(C)noc4C)ccc32)CC1 [Compound 1370] |  | 1610 |  |
| CC(=O)N1Cc2cc(C3CCN(CCN4Cc5cc6c(cc5C4)C(=O)N(C4CCC(=O)NC4=O)C6=O)CC3)cc(N3CCCc4cc(-c5cnn(C)c5)c(C(F)F)cc43)c2C1 (stereo not shown) [Compound 2059] |  | 9.42 |  |
| CC(=O)N1Cc2cc(C3CCN(Cc4ccc(CCOc5cccc6c5CN(C5CCC(=O)NC5=O)C6=O)nc4)CC3)cc(N3CCCc4cc(-c5cnn(C)c5)c(C(F)F)cc43)c2C1 (stereo not shown) [Compound 2035, 3-[4-(2-{5-[(4-{2-acetyl-7-[7-(difluoromethyl)-6-(1-methylpyrazol-4-yl)-3,4-dihydro-2H-quinolin-1-yl]-1,3-dihydroisoindol-5-yl}piperidin-1-yl)methyl]pyridin-2-yl}ethoxy)-1-oxo-3H-isoindol-2-yl]piperidine-2,6-dione] |  | 2.6 |  |
| COC(=O)N1CCc2cc(C3CCN(C(=O)CCCCCCCNc4ccc5c(c4)C(=O)N(C4CCC(=O)NC4=O)C5=O)CC3)cc(N3CCCc4cc(-c5cnn(C)c5)c(C(F)F)cc43)c2C1 (stereo not shown) [Compound 2026, methyl 8-[7-(difluoromethyl)-6-(1-methylpyrazol-4-yl)-3,4-dihydro-2H-quinolin-1-yl]-6-[1-[8-[[2-(2,6-dioxo-3-piperidinyl)-1,3-dioxoisoindolin-5-yl]amino]octanoyl]-4-piperidinyl]-3,4-dihydro-1H-isoquinoline-2-carboxylate] |  | 22.4 |  |
| CC(=O)N1Cc2cc(C3CCN(CC4CCN(c5cccc6c5CN(C5CCC(=O)NC5=O)C6=O)CC4)CC3)cc(N3CCCc4cc(-c5cnn(C)c5)c(C(F)F)cc43)c2C1 (stereo not shown) [Compound 2047] |  | > 10000 |  |
| CC(=O)N1Cc2cc(C3CCN(CCN4CCC(CCc5cccc6c5C(=O)N(C5CCC(=O)NC5=O)C6=O)CC4)CC3)cc(N3CCCc4cc(-c5cnn(C)c5)c(C(F)F)cc43)c2C1 (stereo not shown) [Compound 2005] |  | 7.7 |  |
| CC(=O)N1Cc2cc(C3CCN(CC4CCN(CCNc5cccc6c5CN(C5CCC(=O)NC5=O)C6=O)CC4)CC3)cc(N3CCCc4cc(-c5cnn(C)c5)c(C(F)F)cc43)c2C1 (stereo not shown) [Compound 2060] |  | 6.8 |  |
| CC(=O)N1Cc2cc(C3CCN(CC4CCN(CCOc5ccc(N6CCC(=O)NC6=O)cc5)CC4)CC3)cc(N3CCCc4cc(-c5cnn(C)c5)c(C(F)F)cc43)c2C1 [Compound 2072] |  | 2020 |  |
| CC(=O)N1Cc2cc(C3CCN(C(=O)CN4Cc5cc6c(cc5C4)C(=O)N(C4CCC(=O)NC4=O)C6=O)CC3)cc(N3CCCc4cc(-c5cnn(C)c5)c(C(F)F)cc43)c2C1 (stereo not shown) [Compound 2050] |  | 5.25 |  |
| CNC(=O)N1Cc2cc(C3CCN(C(=O)CCOCCOCCOCCOCCNc4ccc5c(c4)C(=O)N(C4CCC(=O)NC4=O)C5=O)CC3)cc(N3CCCc4cc(-c5cnn(C)c5)c(C(F)F)cc43)c2C1 (stereo not shown) [Compound 2023] |  | 434 |  |
| CC(=O)N1Cc2cc(C3CCN(C(=O)Cn4cc(COc5cccc6c5CN(C5CCC(=O)NC5=O)C6=O)nn4)CC3)cc(N3CCCc4cc(-c5cnn(C)c5)c(C(F)F)cc43)c2C1 (stereo not shown) [Compound 2046] |  | 14 |  |
| CC(=O)N1Cc2cc(C3CCN(CCN4CCC(CNc5cccc6c5CN(C5CCC(=O)NC5=O)C6=O)CC4)CC3)cc(N3CCCc4cc(-c5cnn(C)c5)c(C(F)F)cc43)c2C1 (stereo not shown) [Compound 2061] |  | 3.48 |  |
